Laboratory results reported in EPA's ToxValDB 9.5 (doi:10.2903/j.efsa.2016.4498).
≈ marks a conversion by molar mass, not a printed value.

Experiments:
Rattus norvegicus = conditions: acute; oral; mortality
Hypoaspis aculeifer = conditions: chronic/long-term; mortality
Pimephales promelas = conditions: mortality
Elodea callitrichoides = conditions: chronic/long-term; duration: 42 days
Apis mellifera = conditions: acute, mortality
Daphnia magna = conditions: chronic/long-term; duration: 21 days; mortality
Tagia sp. = conditions: chronic/long-term; growth
Oryctolagus sp. = conditions: chronic

## CNC1=C(c2cccc(C(F)(F)F)c2)C(=O)C(c2ccccc2)O1 (configuration not stated) [Flurtamone]
Rattus norvegicus
  LD50: > 5000 mg/kg
Hypoaspis aculeifer
  NOEC: 89 mg/kg
Pimephales promelas; acute, duration: 96 hours
  LC50: 6.64 µg/mL (≈ 19.9 µM)
Pimephales promelas; chronic/long-term, duration: 35 days
  NOEC: 0.188 mg/L
Elodea callitrichoides
  NOEC: 0.001 mg/L
Apis mellifera; dermal
  LD50: > 100 µg/piece
Apis mellifera; oral, unspecified
  LD50: > 105 µg/piece
Daphnia magna
  NOEC: 0.071 mg/L
Colinus virginianus; acute, oral, mortality
  LD50: > 2530 mg/kg
Colinus virginianus; chronic
  NOEC: 7.3 mg/kg-day
Tagia sp.
  NOEC: 47.5 mg/kg
Oryctolagus sp.
  NOAEL: 20 mg/kg-day
